Laboratory results as given in patent US20250163057A1, “DCN-1 MODULATING COMPOUNDS AND METHODS OF USE THEREOF” (Cellarity, Inc., priority 2023, published 2025).

What was measured:
[1] = system: fetal hemoglobin gene HBG1; experiment: HBG1 Nanostring Assay in CD34+ HSPC erythroid differentiation culture; format: cell-based, human; details: for Nanostring Ymax obs (%): relative to a control compound (C1); for EC50: HBG1 induction, Day10 of erythroid differentiation
Outline: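 HBG1 counts came from direct nCounter hybridization (67° C, 22 h) of day-10 lysates, normalized to ERCC positive controls and a housekeeping gene, giving EC50 and Ymax versus a reference compound. Compounds in 0.1% DMSO were present from day −2 while cells underwent EPO/SCF/IL-3 erythroid differentiation, with IL-3 dropped at day 7, at 37° C.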

[2] = system: Cullin-3 (CUL3) neddylation; experiment: AlphaLISA assay for Cullin-3 (CUL3) neddylation in TF 1 cells; format: cell-based; details: 3 hours treatment
Outline: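 Neddylated CUL3 was quantified by AlphaLISA in lysates of TF 1 cells exposed for 3 h to test compound in IMDM without supplements. Percent inhibition set between vehicle and 1 μM DI-1548 positive control; IC50 derived by Hill-equation fitting of dose-response curves.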

| Structure (SMILES) | Nanostring Ymax obs (%) [1] | IC50 ([2]; Homo sapiens, TF-1, 3 h) [nM] | EC50 ([1]; Homo sapiens, 240 h) [nM] | EC50 [1] [nM] | IC50 [2] [nM] |
| --- | --- | --- | --- | --- | --- |
| CCN1C(=O)[C@@H](NC(=O)c2cccc(C(F)(F)F)c2)[C@@H](c2ccc(F)cc2)c2c(C(=O)N3CCC[C@H]3C#N)nn(-c3ccccc3)c21 (mixture of isomers) [Compound I-34] | ++ (Nanostring Ymax greater than 50.0 and less than or equal to 100.0) |  |  |  |  |
| CCN1C(=O)[C@@H](NC(=O)c2cccc(C(F)(F)F)c2)[C@@H](C2CC2)c2c(C(=O)N3CCS(=O)(=O)C[C@H]3C#N)nn(C3CCOCC3)c21 (mixture of isomers) [Compound I-379] | +++ (Nanostring Ymax greater than 100.0) | ≤ 100 | ≤ 100 |  |  |
| CCN1C(=O)[C@@H](NC(=O)c2cccc(C(F)(F)F)c2)[C@@H](c2ccc(F)cc2)c2c(C(=O)N3CS(=O)(=O)C[C@H]3C#N)nn(C3CCOCC3)c21 (mixture of isomers) [Compound I-661, N-((4S,5S)-3-(4-cyano-1,1-dioxidothiazolidine-3-carbonyl)-7-ethyl-4-(4-fluorophenyl)-6-oxo-1-(tetrahydro-2H-pyran-4-yl)-4,5,6,7-tetrahydro-1H-pyrazolo[3,4-b]pyridin-5-yl)-3-(trifluoromethyl)benzamide] | ++ (Nanostring Ymax greater than 50.0 and less than or equal to 100.0) | ≤ 100 | ≤ 100 |  |  |
| CCN1C(=O)[C@@H](NC(=O)c2cccc(C(F)(F)F)c2)[C@@H](c2ccc(F)cc2)c2c(CNC(=O)/C=C/C(=O)OC)nn(-c3ccccc3)c21 (racemic) [Compound I-3] | +++ (Nanostring Ymax greater than 100.0) | ≤ 100 | ≤ 100 |  |  |
| C=C(CN1CCC1)C(=O)NCc1nn(-c2ccccc2)c2c1[C@H](c1ccc(F)cc1)[C@H](NC(=O)c1cccc(C(F)(F)F)c1)C(=O)N2CC (racemic) [Compound I-49, rac-N-((4R,5R)-3-((2-(azetidin-1-ylmethyl)acrylamido)methyl)-7-ethyl-4-(4-fluorophenyl)-6-oxo-1-phenyl-4,5,6,7-tetrahydro-1H-pyrazolo[3,4-b]pyridin-5-yl)-3-(trifluoromethyl)benzamide] | ++ (Nanostring Ymax greater than 50.0 and less than or equal to 100.0) | ≤ 100 |  |  |  |
| CCN1C(=O)[C@@H](NC(=O)c2cccc(C(F)(F)F)c2)[C@@H](c2ccc(F)cc2)c2c(NC(=O)C3=CCC3)nn(-c3ccccc3)c21 (racemic) [Compound I-152] | +++ (Nanostring Ymax greater than 100.0) | 100 to 1000 | 100 to 1000 |  |  |
| CCN1C(=O)[C@@H](NC(=O)c2cccc(C(F)(F)F)c2)[C@@H](c2ccc(F)cc2)c2c([C@@H](C)NC#N)nn(-c3ccccc3)c21 [Compound I-73, N-((4S,5S)-3-((R)-1-cyanamidoethyl)-7-ethyl-4-(4-fluorophenyl)-6-oxo-1-phenyl-4,5,6,7-tetrahydro-1H-pyrazolo[3,4-b]pyridin-5-yl)-3-(trifluoromethyl)benzamide] | ++ (Nanostring Ymax greater than 50.0 and less than or equal to 100.0) | ≤ 100 | ≤ 100 |  |  |
| CCN1C(=O)[C@@H](NC(=O)c2cccc(C(F)(F)F)c2)[C@@H](c2ccc(F)cc2)c2c(CN(C)C#N)nn(-c3ccccc3)c21 [Compound I-92] | ++ (Nanostring Ymax greater than 50.0 and less than or equal to 100.0) | 100 to 1000 |  | 100 to 1000 |  |
| CCN1C(=O)[C@@H](NC(=O)c2cccc(C(F)(F)F)c2)[C@@H](c2ccc(F)cc2)c2c(C(=O)NC3(C#N)CC3)nn(-c3ccccc3)c21 [Compound I-112] | +++ (Nanostring Ymax greater than 100.0) | 100 to 1000 | 100 to 1000 |  |  |
| C=C(CN1CCC1)C(=O)NCc1nn(-c2ccccc2)c2c1[C@@H](c1ccc(F)cc1)[C@H](NC(=O)c1cccc(C(F)(F)F)c1)C(=O)N2CC [Compound I-139] | ++ (Nanostring Ymax greater than 50.0 and less than or equal to 100.0) | ≤ 100 |  |  |  |
| CCN1C(=O)[C@@H](NC(=O)c2cccc(C(F)(F)F)c2)[C@@H](c2ccc(F)cc2)c2c(CNC#N)nn(-c3ccccc3)c21 [Compound I-140, N-[(4S, 5S)-3-[(cyanoamino)methyl]-7-ethyl-4-(4-fluorophenyl)-6-oxo-1-phenyl-4,5-dihydropyrazolo[3,4-b]pyridine-5-yl]-3-(trifluoromethyl) benzamide] | ++ (Nanostring Ymax greater than 50.0 and less than or equal to 100.0) | ≤ 100 | 100 to 1000 |  |  |
| CCN1C(=O)[C@@H](NC(=O)c2cccc(C(F)(F)F)c2)[C@@H](C2CC2)c2c(C(=O)N3[C@H](C#N)C[C@H]4C[C@H]43)nn(C3CCOCC3)c21 [Compound I-256, N-((4S,5S)-3-((1R,3S,5R)-3-cyano-2-azabicyclo[3.1.0]hexane-2-carbonyl)-4-cyclopropyl-7-ethyl-6-oxo-1-(tetrahydro-2H-pyran-4-yl)-4,5,6,7-tetrahydro-1H-pyrazolo[3,4-b]pyridin-5-yl)-3-(trifluoromethyl)benzamide] | +++ (Nanostring Ymax greater than 100.0) | ≤ 100 | ≤ 100 |  |  |
| CCN1C(=O)[C@@H](NC(=O)c2cccc(C(F)(F)F)c2)[C@@H](c2ccc(F)cc2)c2c(C(=O)N3[C@H](C#N)C[C@H]4C[C@H]43)nn(-c3ccccc3)c21 [Compound I-277] | +++ (Nanostring Ymax greater than 100.0) | ≤ 100 | ≤ 100 |  |  |
| CCN1C(=O)[C@@H](NC(=O)c2cccc(C(F)(F)F)c2)[C@@H](c2ccc(F)cc2)c2c(C(=O)N3CCC[C@H]3C#N)nn(-c3ccccc3)c21 [Compound I-278] | +++ (Nanostring Ymax greater than 100.0) | ≤ 100 | ≤ 100 |  |  |
| CCN1C(=O)[C@@H](NC(=O)c2cccc(C(F)(F)F)c2)[C@@H](c2ccc(F)cc2)c2c(C(=O)N3CCNCC3C#N)nn(C3CCOCC3)c21 (some centres unmarked) [Compound I-334] | +++ (Nanostring Ymax greater than 100.0) | ≤ 100 | ≤ 100 |  |  |
| CCN1C(=O)[C@@H](NC(=O)c2cccc(C(F)(F)F)c2)[C@@H](c2ccc(F)cc2)c2c(C(=O)N3CCC[C@H]3C#N)nn(C3CCOCC3)c21 [Compound I-350] | +++ (Nanostring Ymax greater than 100.0) |  |  | ≤ 100 | ≤ 100 |
| CCN1C(=O)[C@@H](NC(=O)c2cccc(C(F)(F)F)c2)[C@@H](c2ccc(F)cc2)c2c(C(=O)N3CCNC[C@H]3C#N)nn(C3CCOCC3)c21 [Compound I-363, N-((4S,5S)-3-((S)-2-cyanopiperazine-1-carbonyl)-7-ethyl-4-(4-fluorophenyl)-6-oxo-1-(tetrahydro-2H-pyran-4-yl)-4,5,6,7-tetrahydro-1H-pyrazolo[3,4-b]pyridin-5-yl)-3-(trifluoromethyl)benzamide] | +++ (Nanostring Ymax greater than 100.0) | ≤ 100 | ≤ 100 |  |  |
| CCN1C(=O)[C@@H](NC(=O)c2cccc(C(F)(F)F)c2)[C@@H](c2ccc(F)cc2)c2c(C(=O)N(C)[C@@H](C#N)CCN(C)C)nn(C3CCOCC3)c21 [Compound I-369] | +++ (Nanostring Ymax greater than 100.0) | ≤ 100 | ≤ 100 |  |  |
| CCN1C(=O)[C@@H](NC(=O)c2cccc(C(F)(F)F)c2)[C@@H](c2ccc(F)cc2)c2c(C(=O)N(C)[C@H](C#N)CCN(C)C)nn(C3CCOCC3)c21 [Compound I-370] | +++ (Nanostring Ymax greater than 100.0) | ≤ 100 | ≤ 100 |  |  |
| CCN1C(=O)[C@@H](NC(=O)c2cccc(C(F)(F)F)c2)[C@@H](C2CC2)c2c(C(=O)N3C[C@H](F)C[C@H]3C#N)nn(C3CCOCC3)c21 [Compound I-372] | ++ (Nanostring Ymax greater than 50.0 and less than or equal to 100.0) | ≤ 100 | 100 to 1000 |  |  |
| CCN1C(=O)[C@@H](NC(=O)c2cccc(C(F)(F)F)c2)[C@@H](C2CC2)c2c(C(=O)N3C[C@H](OC)C[C@H]3C#N)nn(C3CCOCC3)c21 [Compound I-377] | +++ (Nanostring Ymax greater than 100.0) | ≤ 100 | ≤ 100 |  |  |
| CCN1C(=O)[C@@H](NC(=O)c2cccc(C(F)(F)F)c2)[C@@H](C2CC2)c2c(C(=O)N3CCNC[C@H]3C#N)nn(-c3ccccc3)c21 [Compound I-383] | ++ (Nanostring Ymax greater than 50.0 and less than or equal to 100.0) | ≤ 100 | ≤ 100 |  |  |
| CCN1C(=O)[C@@H](NC(=O)c2cccc(C(F)(F)F)c2)[C@@H](C)c2c(C(=O)N3[C@H](C#N)C[C@H]4C[C@H]43)nn(C3CCOCC3)c21 [Compound I-387] | +++ (Nanostring Ymax greater than 100.0) |  |  | ≤ 100 | ≤ 100 |
| CCN1C(=O)[C@@H](NC(=O)c2cccc(C(F)(F)F)c2)[C@@H](C2CC2)c2c(C(=O)N3CC[C@H](OC)[C@H]3C#N)nn(C3CCOCC3)c21 [Compound I-418] | +++ (Nanostring Ymax greater than 100.0) | ≤ 100 | ≤ 100 |  |  |
| CCN1C(=O)[C@@H](NC(=O)c2cccc(C(F)(F)F)c2)[C@@H](C2CC2)c2c(C(=O)N(C)[C@H](C)C#N)nn(C3CCOCC3)c21 [Compound I-422] | +++ (Nanostring Ymax greater than 100.0) | ≤ 100 | 100 to 1000 |  |  |
